Columns and labels:
[1] = system: cultured human mast cells (CHMC); experiment: CHMC low cell density ionomycin activation: tryptase assay; assay type: cell-based
[2] = system: bone marrow derived mast cells (BMMC); experiment: BMMC high cell density IgE activation: TNFalpha; assay type: cell-based, mouse; details: anti-IgE, second part of TABLE 1, read-out: BMMC anti-IgE TNF-alpha IC50
Description: (§1) Inhibition of degranulation was measured at both low and high cell density by quantifying the release of the granule specific factors tryptase, histamine and hexosaminidase. Inhibition of release and/or synthesis of lipid mediators was assessed by measuring the release of leukotriene LTC4 and inhibition of release and/or synthesis of cytokines was monitored by quantifying TNF-α, IL-6 and IL-13. Tryptase and hexosaminidase were quantified using fluorogenic substrates as described in their respective examples. […] The protocols of the various assays are provided below.
(§2) After sensitizing, cells are counted, pelleted (1000 rpm, 5-10 minutes), and resuspended at 1-3×10^6 cells/ml in MT buffer. Add 100 ul of cell suspension to each well and 100 ul of compound dilutions. The final vehicle concentration is 0.5% DMSO. Incubate at 37° C. (5% CO2) for 1 hour. After 1 hour of compound treatment, stimulate cells with 6× stimulus (60 ng/ml DNP-BSA). Mix wells with the cells and allow plates to incubate at 37° C. (5% CO2) for one hour. After 1 hour incubation, pellet cells (10 minutes, 1000 RPM) and collect 200 ul per well of the supernatant, being careful not to disturb pellet, and transfer to a clean tube or 96-well plate. Place the supernatant plate on ice. During the 4-5 hour step (see next) perform the hexosiminidase assay. Resuspend cell pellet in 240 ul WEI-conditioned media containing 0.5% DMSO and corresponding concentration of compound. Incubate BMMC cells for 4-5 hours at 37° C. (5% CO2). After incubation, pellet cells (1000 RPM, 10 minutes) and collect 225 ul per well and place in −80° C. until ready to perform ELISAS. ELISAS are performed on appropriately diluted samples (determined empirically for each donor cell population so that the sample measurement falls within the standard curve) following the supplier's instructions.

[3] = system: cultured human mast cells (CHMC); experiment: CHMC low cell density IgE activation: tryptase assay; assay type: cell-based; details: anti-IgE
Procedure, shortened: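 Supernatant tryptase activity, assayed with substrate for 30 min at room temperature, served as the degranulation measure. Mast cells (1000-1500 per well depending on donor) sat 1 hr at 37° C in MT before a 30 min anti-IgE challenge at 37° C.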

[4] = system: bone marrow derived mast cells (BMMC); experiment: BMMC high cell density IgE activation: LTC4; assay type: cell-based, mouse; details: anti-IgE, second part of TABLE 1
Description: as §1, §2

[5] = system: bone marrow derived mast cells (BMMC); experiment: BMMC high cell density IgE activation: histamine; assay type: cell-based, mouse; details: anti-IgE, second part of TABLE 1
Description: as §1, §2

[6] = system: bone marrow derived mast cells (BMMC); experiment: BMMC high cell density IgE activation: IL-6; assay type: cell-based, mouse; details: anti-IgE, second part of TABLE 1
Description: as §1, §2

[7] = system: bone marrow derived mast cells (BMMC); experiment: BMMC high cell density IgE activation: hexosaminidase; assay type: cell-based, mouse; details: anti-IgE, second part of TABLE 1, read-out: BMMC anti-IgE hexos. IC50
Description: as §2
Hexosaminidase assay: In a solid black 96-well assay plate, add 50 uL hexosaminidase substrate (4-methylumbelliferyl-N-acetyl-(3-D-glucosaminide; 2 mM) to each well. Add 50 uL of BMMC cell supernatant (see above) to the hexoseaminidase substrate, place at 37° C. for 30 minutes and read the plate at 5, 10, 15, and 30 minutes on a spectrophotometer.

[8] = system: cultured human mast cells (CHMC); experiment: CHMC high cell density IgE activation: hexos (hexosaminidase) release; assay type: cell-based; details: anti-IgE activation
Description: as §1
(§3) After sensitizing, cells are counted, pelleted (1000 rpm, 5-10 minutes), and resuspended at 1-2×10^6 cells/ml in MT buffer. Add 100 ul of cell suspension to each well and 100 ul of compound dilutions. The final vehicle concentration is 0.5% DMSO. Incubate at 37° C. (5% CO2) for 1 hour. After 1 hour of compound treatment, stimulate cells with 6× anti-IgE. Mix wells with the cells and allow plates to incubate at 37° C. (5% CO2) for one hour. After 1 hour incubation, pellet cells (10 minutes, 1000 RPM) and collect 200 ul per well of the supernatant, being careful not to disturb pellet. Place the supernatant plate on ice. During the 7-hour step (see next) perform tryptase assay on supernatant that had been diluted 1:500. Resuspend cell pellet in 240 ul of CM media containing 0.5% DMSO and corresponding concentration of compound. Incubate CHMC cells for 7 hours at 37° C. (5% CO2). After incubation, pellet cells (1000 RPM, 10 minutes) and collect 225 ul per well and place in −80° C. until ready to perform ELISAS. ELISAS are performed on appropriately diluted samples (determined empirically for each donor cell population so that the sample measurement falls within the standard curve) following the supplier's instructions.

[9] = system: cultured human mast cells (CHMC); experiment: CHMC high cell density IgE activation: histamine; assay type: cell-based; details: anti-IgE activation
Description: as §1, §3

[10] = system: cultured human mast cells (CHMC); experiment: CHMC high cell density IgE activation: tryptase; assay type: cell-based; details: anti-IgE activation
Description: as §3

[11] = system: cultured human mast cells (CHMC); experiment: CHMC high cell density IgE activation: TNFalpha; assay type: cell-based; details: anti-IgE activation; read-out: CHMC high density TNF-alpha
Description: as §1, §3

[12] = system: cultured human mast cells (CHMC); experiment: CHMC high cell density IgE activation: LTC4; assay type: cell-based; details: anti-IgE activation
Description: as §1, §3

[13] = system: FcγRI-mediated degranulation; experiment: FcγRI receptor-mediated degranulation (activation with anti-human IgG Fab fragment); assay type: cell-based; details: cells not primed with IgE, activated with rabbit anti-human IgG Fab fragment
[14] = system: cultured human mast cells (CHMC); experiment: CHMC low cell density IgE activation: LTC4 assay; assay type: cell-based; details: Homo sapiens, Mast cell, anti-IgE
Description: Pellet CHMC cells (980 rpm, 10 min) and resuspend in pre-warmed MT. Add 65 ul of cells to each 96-well plate. Depending on the degranulation activity for each particular CHMC donor, load 1000-1500 cells/well. Mix four times followed by a 1 hr incubation at 37° C. […] Stimulate cells by adding 25 ul of 6× anti-IgE solution to the appropriate plates. Add 25 ul MT to un-stimulated control wells. Mix twice following addition of the anti-IgE. Incubate at 37° C. for 30 minutes. […] Spin plates at 1000 rpm for 10 min to pellet cells. Transfer 25 ul of supernatant to a 96-well black bottom plate and add 100 ul of freshly diluted tryptase substrate solution to each well. Incubate plates at room temperature for 30 min.
Leukotriene C4 (LTC4) is also quantified using an ELISA kit on appropriately diluted supernatant samples (determined empirically for each donor cell population so that the sample measurement falls within the standard curve) following the supplier's instructions.

| Structure (SMILES) | IC50 [1] [nM] | IC50 [2] [nM] | IC50 [3] [nM] | IC50 [4] [nM] | IC50 [5] [nM] | IC50 [6] [nM] | IC50 [7] [nM] | FcγRI-mediated degranulation (in words) [13] | also measured |
| --- | --- | --- | --- | --- | --- | --- | --- | --- | --- |
| CNC(=O)COc1cccc(Nc2nc(Nc3cccc(O)c3)ncc2C(F)(F)F)c1 [R926741, N2-(3-Hydroxyphenyl)-5-trifluoromethyl-N4-[3-(N-methylamino)carbonylmethyleneoxyphenyl]-2,4-pyrimidinediamine] | > 10000 | 772 | 2910 | > 10000 | 1020 | 537 | 961 | – | – |
| Cc1nc(COc2cccc(Nc3ncc(F)c(Nc4ccc5c(c4)OCCO5)n3)c2)no1 [R945128, N4-(3,4-Ethylenedioxyphenyl)-5-fluoro-N2-[3-(5-methyl-1,2,4-oxadiazol-3-yl)methyleneoxyphenyl]-2,4-pyrimidinediamine] | 8800 | – | – | – | – | – | – | – | IC50 [8]: 1280 nM; IC50 [9]: 547 nM; IC50 [10]: 1750 nM; IC50 [11]: > 2000 nM |
| Fc1cnc(Nc2ccc(OCc3nnn[nH]3)cc2)nc1Nc1ccc(OCc2nnn[nH]2)cc1 [R945033, N2,N4-Bis[4-(1H-1,2,3,4-tetrazol-5-yl)methyleneoxyphenyl]-5-fluoro-2,4-pyrimidinediamine] | > 10000 | – | > 10000 | – | – | – | – | – | IC50 [8]: 8150 nM; IC50 [9]: > 10000 nM; IC50 [10]: 8870 nM; IC50 [12]: 5980 nM |
| CNC(=O)COc1cccc(Nc2ncc(F)c(Nc3ccc4c(c3)NC(=O)C(F)(F)O4)n2)c1 [R921303, N4-[(2,2-Difluoro-4H-benzo[1,4]oxazin-3-one)-6-yl]-5-fluoro-N2-[3-(methylaminocarbonylmethyleneoxy)phenyl]-2,4-pyrimidinediamine] | – | – | – | – | – | – | – | inhibit FcγRI-mediated degranulation | – |
| Cc1cc(Nc2nc(Nc3cccc(OCC(=O)N4CCOCC4)c3)ncc2F)cc(Cl)c1O [R940265, N4-(3-Chloro-4-hydroxy-5-methylphenyl)-5-fluoro-N2-[3-(N-morpholino)carbonylmethyleneoxyphenyl]-2,4-pyrimidinediamine] | > 10000 | 1130 | 239 | 1210 | 306 | 486 | 981 | – | – |
| CC(C)(C)c1cccc(Nc2nc(Nc3cccc(OCC(=O)NCC(O)CO)c3)ncc2F)c1 (stereo not shown) [R940277, N4-(3-tert-Butylphenyl)-N2-[3-(N-2,3-dihydroxypropylamino)carbonylmethyleneoxyphenyl]-5-fluoro-2,4-pyrimidinediamine] | > 10000 | 262 | – | 625 | 315 | 181 | 279 | – | – |
| Fc1cnc(Nc2cccc(OCCN3CCOCC3)c2)nc1Nc1ccc2c(c1)OCCO2 [R926486, N4-(3,4-Ethylenedioxyphenyl)-5-fluoro-N2-[3-[2-(N-morpholino)ethyleneoxy]phenyl]-2,4-pyrimidinediamine] | 7400 | – | 647 | – | – | – | – | – | IC50 [11]: 455 nM |
| O=C(NC(CO)CO)c1cc2cc(Nc3ncc(F)c(Nc4ccc5c(c4)OCCO5)n3)ccc2o1 [R926785, N2-[2-(N-1,3-Dihydroxy-2-propylamino)carbonylbenzofuran-5-yl]-N4-(3,4-ethylenedioxyphenyl)-5-fluoro-2,4-pyrimidinediamine] | > 10000 | 1310 | – | 1410 | 561 | 513 | 989 | – | – |
| CNC(=O)COc1cccc(Nc2ncc(F)c(Nc3cccc(C(C)(C)C)c3)n2)c1 [R940276, N4-(3-tert-Butylphenyl)-N2-[3-(N-methylamino)carbonylmethyleneoxyphenyl]-5-fluoro-2,4-pyrimidinediamine] | > 10000 | 251 | 211 | 332 | 73 | < 56 | 136 | – | – |
| Oc1cccc(Nc2ncc(F)c(Nc3ccc(OCc4nc(-c5ccccc5)no4)cc3)n2)c1 [R935138, 5-Fluoro-N2-(3-hydroxyphenyl)-N4-[4-(3-phenyl-1,2,4-oxadiazol-5-yl)methyleneoxyphenyl]-2,4-pyrimidinediamine] | 552 | 409 | 96 | 373 | < 220 | < 220 | < 220 | – | – |
| O=C1Nc2cc(Nc3ncc(F)c(Nc4ccc5c(c4)NC(=O)C(F)(F)O5)n3)ccc2OC1(F)F [R940352, N2,N4-[(2,2-Difluoro-4H-benzo[1,4]oxazin-3-one)-6-yl]-5-fluoro-2,4-pyrimidinediamine] | > 10000 | – | 101 | – | – | – | – | inhibit FcγRI-mediated degranulation | – |
| CNC(=O)CNc1cccc(Nc2ncc(F)c(Nc3ccc4c(c3)OCCO4)n2)c1 [R950191] | > 10000 | < 220 | 178 | 401 | > 2000 | < 220 | < 220 | – | – |
| CNC(=O)COc1cccc(Nc2ncc(F)c(Nc3ccc(OC(F)(F)F)c(Cl)c3)n2)c1 [R920410, N4-(3-Chloro-4-trifluoromethoxyphenyl)-5-fluoro-N2-[3-(N-methylamino)carbonylmethyleneoxyphenyl]-2,4-pyrimidinediamine] | > 10000 | – | – | – | – | – | – | inhibit FcγRI-mediated degranulation | – |
| Cc1cc(Nc2ncc(F)c(Nc3ccc4c(c3)NC(=O)C(F)(F)O4)n2)cc(Cl)c1O [R926971] | – | – | – | – | – | – | – | inhibit FcγRI-mediated degranulation | – |
| CNC(=O)COc1cccc(Nc2ncc(F)c(Nc3ccc4c(n3)NC(=O)C(C)(C)O4)n2)c1 [R940347, N4-[(2,2-Dimethyl-4H-5-pyrido[1,4]oxazin-3-one)-6-yl]-5-fluoro-N2-[3-(methylaminocarbonylmethyleneoxy)phenyl]-2,4-pyrimidinediamine] | – | – | 63 | – | – | – | – | inhibit FcγRI-mediated degranulation | – |
| COC(=O)c1cc2cc(Nc3ncc(F)c(Nc4ccc5[nH]c(C(=O)OC)cc5c4)n3)ccc2[nH]1 [R926593] | – | – | – | – | – | – | – | – | IC50 ([1]; Homo sapiens, Mast cell): 8300 nM; IC50 [14]: 495 nM; IC50 ([3]; Homo sapiens, Mast cell): 680 nM |

— patent US9499493B2, “2,4-pyrimidinediamine compounds and their uses” (Rigel Pharmaceuticals, Inc., priority 2002, dated 2016)
